Measurements from patent US8129383B2, “Aminopterin dosage forms and methods for inflammatory disorders” (Aminopterin LLC, priority 2005, dated 2012).

Columns and labels:
canine atopic dermatitis = conditions: oral about 0.2 mg/kg/week
Protocol: […] Subjects were assessed at baseline and at weeks 2 and 4 of the trial, and every other week of the 1-year extension phase.
Subjects were assessed at baseline and at weeks 2 and 4.

[1] = tested on: influx of neutrophils (PMNs) in hyperoxia; test: rat oxygen-toxicity model of bronchopulmonary dysplasia; assay type: in vivo, rats; conditions: single 0.35 mg/kg ip day 2 after birth, 95% oxygen, sacrifice day 8
Text: Mason, S, N.; Richard L. Auten, J. Lung inflammation in hyperoxia can be prevented by antichemokine treatment in newborn rats. American Journal of Respiratory Critical Care Medicine 2000, 162, 2316-2323]. […] Litter sizes were the same. […] Dams were rotated daily between air and oxygen cages to avoid maternal oxygen toxicity. On day 8, the pups were weighed and then euthanized, tracheas are cannulated and the pulmonary artery is perfused with saline. Bronchoalveolar lavage fluid (BALF) was then obtained for cell count and chemokine analysis (FIG. 3). The lungs were removed and snap frozen for myeloperoxidase activity assay (neutrophil accumulation within lung parenchyma) and 8-isoprostane, a marker of lipid oxidation. The pulmonary artery was perfused and the lungs were inflation-fixed with buffered formalin at 25 cm H2O.

[2] = tested on: carrageenan-induced inflammation in air pouches; test: duration of efficacy in the murine air-pouch model after cessation of 4 weeks of dosing; assay type: in vivo, mice; conditions: aminopterin 0.05 mg/kg, methotrexate 1.0 mg/kg
Protocol: We therefore examined the rate at which anti-inflammatory activity was lost in the air-pouch model after the cessation of 4 weeks of dosing at the maximally efficacious dose (FIG. 2).
On day 25 the air pouches were re-inflated with 1.5 ml of air. Pouches were re-inflated as needed to maintain them.

[3] = tested on: neutrophils that accumulated in the carrageenan-treated air pouches; conditions: weekly ip injection days 1, 7, 14, 21; carrageenan day 22, exudate after 4 hours
Protocol: J. Clin. Invest., 1993. 92(6):2675-82].
A separate group of 5 animals was given vehicle by ip injection on the same days (0.9% saline, control, n=5). On day 16, air pouches were induced on the animals by injecting 3 ml of air subcutaneously on the back. On day 22 (i.e. one day after the last dose of drug or vehicle), inflammation was induced by injection of 1 ml of a suspension of carrageenan (2% weight/volume in calcium- and magnesium-free PBS). The mice were put back in their cages and allowed to run free for 4 hours. […] After 4 hours, the animals were sacrificed, the pouches flushed with 2 ml of PBS and the exudates harvested. Aliquots were diluted 1:1 with methylene blue (0.01% w/v in PBS), and the cells were counted.

ma104 cells = conditions: read-out: EC50 of adenosine release (prior art); Cronstein'91; cited from earlier work

## CN(Cc1cnc2nc(N)nc(N)c2n1)c1ccc(C(=O)N[C@@H](CCC(=O)O)C(=O)O)cc1 [methotrexate]
Canine atopic dermatitis; 4-week trial
  time to produce efficacy compared to aminopterin: took longer to produce efficacy compared to aminopterin
Canine atopic dermatitis; assessed at weeks 2 and 4
  outcome of the five treated dogs: Three dogs did not do well, one had not improved as of the last assessment and one dog improved markedly
[1]
  influx of neutrophils in bronchoalveolar lavage fluid: failed to reduce the influx of neutrophils
[2]; 8, 12 or 22 days after last of 4 weekly ip doses
  difference between aminopterin and methotrexate in rate of recovery of inflammation: no statistically significant difference
[2]; after last of 4 weekly ip doses
  duration of action: quite long
[3]
  EC50 for diminishing the number of neutrophils accumulated in carrageenan-treated air pouches: 0.04 mg/kg/wk
ma104 cells
  EC50: ~1 nM
